From patent publication US20060178513A1, “Pyridinylanilides” (priority 2003, published 2006)
Read-outs that look alike come from different tables or passages of the source.

How the values were obtained:
Podosphaera leucotricha = assay: Podosphaera test (apple)/protective; type: in vivo; conditions: topical, 240 h, apple plants, protective, application rate 100 g/ha, evaluation 10 days after inoculation, read-out: Efficacy in %
Description: [table] To produce a suitable preparation of active compound, 1 part by weight of active compound is mixed with the stated amounts of solvent and emulsifier, and the concentrate is diluted with water to the desired concentration. To test for protective activity, young plants are sprayed with the preparation of active compound at the stated application rate. After the spray coating has dried on, the plants are inoculated with an aqueous spore suspension of the apple mildew pathogen Podosphaera leucotricha. The plants are then placed in a greenhouse at about 23° C. and a relative atmospheric humidity of about 70%. Evaluation is carried out 10 days after the inoculation. 0% means an efficacy which corresponds to that of the control, whereas an efficacy of 100% means that no infection is observed.

[1] = logP determination by HPLC (reversed-phase C 18), EEC Directive 79/831 Annex V.A8; type: physicochemical
Description: The logP values given in the Preparation Examples were determined in accordance with EEC Directive 79/831 Annex V.A8 by HPLC (High Performance Liquid Chromatography) using a reversed-phase column (C 18). Temperature: 43° C. Mobile phases for the determination in the acidic range: 0.1% aqueous phosphoric acid, acetonitrile; linear gradient from 10% acetonitrile to 90% acetonitrile. Calibration was carried out using straight-chain alkan-2-ones (having 3 to 16 carbon atoms) with known logp values (determination of the logp values by the retention times using linear interpolation between two successive alkanones).

Venturia inaequalis = assay: Venturia Test (Apple)/protective; type: in vivo; conditions: topical, 240 h, apple plants, protective, application rate 100 g/ha, evaluation 10 days after inoculation, read-out: Efficacy in %
Description: [table] To produce a suitable preparation of the active compound, 1 part by weight of active compound is mixed with the stated amounts of solvents and emulsifier, and the concentrate is diluted with water to the desired concentration. To test for protective activity, young plants are sprayed with the preparation of active compound at the stated application rate. After the spray coating has dried on, the plants are inoculated with an aqueous conidia suspension of the apple scab pathogen Venturia inaequalis and then remain in an incubation cabin at about 20° C. and 100% relative atmospheric humidity for 1 day. The plants are then placed in a greenhouse at about 21° C. and a relative atmospheric humidity of about 90%. Evaluation is carried out 10 days after the inoculation. 0% means an efficacy which corresponds to that of the control, whereas an efficacy of 100% means that no infection is observed.

Alternaria solani = assay: Alternaria test (tomato)/protective; type: in vivo; conditions: tomato plants, protective, application rate 750 g/ha, evaluation 7 days after inoculation
Description: [table] To produce a suitable preparation of active compound, 1 part by weight of active compound is mixed with the stated amounts of solvent and emulsifier, and the concentrate is diluted with water to the desired concentration. To test for protective activity, young tomato plants are sprayed with the preparation of active compound at the stated application rate. 1 day after the treatment, the plants are inoculated with a spore suspension of Alternaria solani and then remain at 100% rel. humidity and 20° C. for 24 h. The plants then remain at 96% rel. atmospheric humidity and a temperature of 20° C. Evaluation was carried out 7 days after the inoculation. 0% means an efficacy which corresponds to that of the control, whereas an efficacy of 100% means that no infection is observed.

Puccinia recondita = assay: Puccinia test (wheat)/protective; type: in vivo; conditions: wheat plants, protective, application rate 500 g/ha, evaluation 10 days after inoculation
Description: (§1) [table] To produce a suitable preparation of active compound, 1 part by weight of active compound is mixed with the stated amounts of solvent and emulsifier, and the concentrate is diluted with water to the desired concentration. To test for protective activity, young plants are sprayed with the preparation of active compound at the stated application rate. After the spray coating has dried on, the plants are sprayed with a conidia suspension of Puccinia recondita. The plants remain in an incubation cabin at 20° C. and 100% relative atmospheric humidity for 48 hours. The plants are then placed in a greenhouse at a temperature of approximately 20° C. and a relative atmospheric humidity of 80% to promote the development of rust pustules. Evaluation is carried out 10 days after the inoculation. 0% means an efficacy which corresponds to that of the control, whereas an efficacy of 100% means that no infection is observed.

Pyrenophora teres = Pyrenophora teres test (barley)/protective; type: in vivo; conditions: barley plants, protective, application rate 500 g/ha, evaluation 8 days after inoculation
Description: as §1, with “stated amount” for “stated amounts”, “of Pyrenophora teres.” for “of Puccinia recondita.”, “of about” for “of approximately”, “of about 80%.” for “of 80% to promote the development of rust pustules.”, “out 8” for “out 10”

[2] = reversed-phase HPLC column (C 18), HPLC, reversed-phase C 18, 43° C., acidic range (0.1% aqueous phosphoric acid/acetonitrile), read-out: logP
[3] = reversed-phase HPLC column (C 18), pH 2.3, HPLC, reversed-phase C 18, 43° C., read-out: log P (pH 2.3)

Row | chromatographic logP [1, 2] | SMILES | pest or weed control at 100 g/ha (Podosphaera leucotricha) [%] | pest or weed control at 100 g/ha (Venturia inaequalis) [%] | other results
1 | 3.27 | Cc1nc(C(F)(F)F)c(C(=O)Nc2ccccc2-c2cc(Cl)nc(Cl)c2)s1 [1-7-10] | 100 | 100 | Efficacy in % (Alternaria solani): 100%
2 | 2.95 | CON=Cc1ccc(-c2ccccc2NC(=O)c2cccnc2Cl)nc1 [1-8-15, 2-chloro-N-{2-[5-(E)methoxyimino-methyl)-pyridin-2-yl]-phenyl}-nicotinamide] |  |  | chromatographic logP [1, 3]: 2.95
3 | 3.43 | O=C(Nc1ccccc1-c1ncc(C(F)(F)F)cc1Cl)C1=C(C(F)(F)F)OCCS1 [1-8-25] |  | 99 | 
4 | 3.06 | Cc1nn(C)c(F)c1C(=O)Nc1ccccc1-c1ccc(Cl)cn1 [1-8-11] | 95 | 100 | 
5 | 2.95 | O=C(Nc1ccccc1-c1ccc(Cl)cn1)c1cccnc1Cl [1-8-10] | 100 | 100 | Efficacy in % (Puccinia recondita): 94%; Efficacy in % (Pyrenophora teres): 100%
6 | 3.49 | O=C(Nc1ccccc1-c1ncc(C(F)(F)F)cc1Cl)c1ccccc1Br [1-8-21] | 100 |  | 
7 | 3.44 | Cc1occc1C(=O)Nc1ccccc1-c1ncc(C(F)(F)F)cc1Cl [1-8-2] |  |  | Efficacy in % (Puccinia recondita): 100%; Efficacy in % (Pyrenophora teres): 100%; Efficacy in % (Alternaria solani): 100%
8 |  | Nc1ccccc1-c1ncc(C(F)(F)F)cc1Cl [III-1, 2-[3-chloro-5-(trifluoromethyl)-2-pyridinyl]aniline] |  |  | chromatographic logP [1, 3]: 2.79
9 | 3.48 | Cc1nc(C(F)(F)F)c(C(=O)Nc2ccccc2-c2ncc(C(F)(F)F)cc2Cl)s1 [1-8-28] | 96 | 98 | 
10 | 2.13 | Cn1cc(C(=O)Nc2ccccc2-c2ccnc(Br)c2)c(C(F)F)n1 [1-7-6] |  |  | Efficacy in % (Puccinia recondita): 100%; Efficacy in % (Pyrenophora teres): 93%; Efficacy in % (Alternaria solani): 95%
11 |  | CO/N=C/c1ccc(Br)nc1 [VII-1, 6-bromo-pyridine-3-carbaldehyde (E)-O-methyl-oxime] |  |  | chromatographic logP ([1]; pH 2.3): 2.16
12 | 3.05 | Cn1cc(C(=O)Nc2ccccc2-c2ccc(Cl)cn2)c(C(F)F)n1 [1-8-14] |  | 100 | Efficacy in % (Pyrenophora teres): 94%
13 | 3.13 | Cn1cc(C(=O)Nc2ccccc2-c2ncc(C(F)(F)F)cc2Cl)c(C(F)(F)F)n1 [1-8-29] |  | 98 | 
14 |  | CO/N=C/c1ccc(-c2ccccc2N)nc1 [III-2, 6-(2-amino-phenyl)-pyridine-3-carbaldehyde (E)-O-methyl-oxime] |  |  | chromatographic logP [1, 3]: 1.59
15 | 2.92 | Cn1cc(C(=O)Nc2ccccc2-c2ncc(C(F)(F)F)cc2Cl)c(I)n1 [1-8-30] |  | 92 | 
16 |  | O=C(Nc1ccccc1I)c1ccccc1C(F)(F)F [IV-1] |  |  | chromatographic logP [1, 3]: 2.98
17 | 2.85 | O=C(Nc1ccccc1-c1ccnc(Br)c1)c1ccccc1C(F)(F)F [1-7-5] |  |  | Efficacy in % (Pyrenophora teres): 93%
18 | 2.1 | Cn1cc(C(=O)Nc2ccccc2-c2ccc(Cl)nc2)c(C(F)F)n1 [1-6-7] | 98 |  | 
19 | 2.02 | Cc1nn(C)c(F)c1C(=O)Nc1ccccc1-c1ccnc(Br)c1 [1-7-4] |  |  | Efficacy in % (Puccinia recondita): 100%; Efficacy in % (Pyrenophora teres): 93%
20 | 3.59 | O=C(Nc1ccccc1-c1ncc(C(F)(F)F)cc1Cl)c1ccccc1C(F)(F)F [1-8-1] | 100 | 100 | chromatographic logP [1, 3]: 3.58; Efficacy in % (Puccinia recondita): 100%
21 | 3.45 | O=C(Nc1ccccc1-c1ncc(C(F)(F)F)cc1Cl)c1ccccc1Cl [1-8-20] | 100 |  | 
22 | 4 | O=C(Nc1ccccc1-c1ccc(Cl)cn1)c1ccccc1C(F)(F)F [1-8-12] | 92 | 100 | 
23 |  | Cn1nc(C(F)(F)F)c(C(=O)Nc2ccccc2-c2cc(Cl)nc(Cl)c2)c1F [1-7-9] |  | 100 | 
24 | 4.13 | O=C(Nc1ccccc1-c1ccc(C(F)(F)F)cn1)c1ccccc1C(F)(F)F [1-8-9] | 97 |  | Efficacy in % (Alternaria solani): 95%
25 | 3.83 | Cc1ccsc1C(=O)Nc1ccccc1-c1ncc(C(F)(F)F)cc1Cl [1-8-3] | 100 | 100 | Efficacy in % (Puccinia recondita): 100%; Efficacy in % (Pyrenophora teres): 100%; Efficacy in % (Alternaria solani): 95%
26 | 2.91 | Cn1cc(C(=O)Nc2ccccc2-c2ncc(C(F)(F)F)cc2Cl)c(C(F)F)n1 [1-8-27] | 97 | 100 | 
